Results as given in article PMC4303209, “A novel phosphatidylinositol 3-kinase (PI3K) inhibitor directs a potent FOXO-dependent, p53-independent cell cycle arrest phenotype characterized by the differential induction of a subset of FOXO-regulated genes” (Breast Cancer Research : BCR, 2014).

Test system: MCF-7 breast cancer cells
Assay: Microarray gene expression analysis (Agilent whole human genome 4 x 44K; compound vs DMSO, LIMMA log2 fold change)
Type: cell-based

Oc1cccc(-c2nc(N3CCOCC3)c3oc4ncccc4c3n2)c1 [PI-103]
EYA1 log2FC (gene EYA1 (2138), apoptosis genes): 0.027
log2FC EYA1 (gene EYA1 (Gene 2138), cell cycle genes): 0.027
FABP1 log2FC (gene FABP1 (2168), apoptosis genes): -0.014
FAIM2 log2FC (gene FAIM2 (23017), apoptosis genes): 0.077
FAM3B log2FC (gene FAM3B (54097), apoptosis genes): -0.110
FAM32A log2FC (gene FAM32A (26017), apoptosis genes): -0.300
log2FC FAM32A (gene FAM32A (Gene 26017), cell cycle genes): -0.30
log2FC (gene FAM58A (Gene 92002), cell cycle genes): 0.17
FAS log2FC (gene FAS (355), apoptosis genes): -0.278
log2FC (gene FBXL15 (Gene 79176), cell cycle genes): 0.25
log2FC FGFR1OP (gene FGFR1OP (Gene 11116), cell cycle genes): -0.20
FIS1 log2FC (gene FIS1 (51024), apoptosis genes): 0.161
FKSG2 log2FC (gene FKSG2 (59347), apoptosis genes): -0.076
log2FC (gene FMN2 (Gene 56776), cell cycle genes): 0.00262
FOXB1 log2FC (gene FOXB1 (27023), apoptosis genes): -0.433
log2FC (gene FSD1 (Gene 79187), cell cycle genes): -0.09
GADD45G log2FC (gene GADD45G (10912), apoptosis genes): -0.195
GAPDH log2FC (gene GAPDH (2597), apoptosis genes): 0.013
log2FC (gene GAS2L1 (Gene 10634), cell cycle genes): -0.26
log2FC GAS2L2 (gene GAS2L2 (Gene 246176), cell cycle genes): -0.00222
GAS6 log2FC (gene GAS6 (2621), apoptosis genes): -0.103
GATA6 log2FC (gene GATA6 (2627), apoptosis genes): 0.052
log2FC GATA6 (gene GATA6 (Gene 2627), cell cycle genes): 0.05
GCG log2FC (gene GCG (2641), apoptosis genes): 0.035
GCLM log2FC (gene GCLM (2730), apoptosis genes): -0.246
GCM2 log2FC (gene GCM2 (9247), apoptosis genes): -0.063
log2FC (gene GEM (Gene 2669), cell cycle genes): 0.84
GFRAL log2FC (gene GFRAL (389400), apoptosis genes): -0.028
GHRL log2FC (gene GHRL (51738), apoptosis genes): -0.060
GIMAP5 log2FC (gene GIMAP5 (55340), apoptosis genes): 0.028
GJB6 log2FC (gene GJB6 (10804), apoptosis genes): 0.090
log2FC (gene GOLGA2 (Gene 2801), cell cycle genes): 0.24
log2FC (gene GORASP1 (Gene 64689), cell cycle genes): 0.05
log2FC (gene GORASP2 (Gene 26003), cell cycle genes): -0.48
GPI log2FC (gene GPI (2821), apoptosis genes): 0.047
GPR65 log2FC (gene GPR65 (8477), apoptosis genes): -0.016
GRK1 log2FC (gene GRK1 (6011), apoptosis genes): -0.053
log2FC (gene GTPBP8 (Gene 29083), cell cycle genes): 0.10
log2FC (gene GTSE1 (Gene 51512), cell cycle genes): -0.33
log2FC H1FOO (gene H1FOO (Gene 132243), cell cycle genes): 0.05
HCLS1 log2FC (gene HCLS1 (3059), apoptosis genes): 0.112
log2FC (gene HELLS (Gene 3070), cell cycle genes): 0.14
HIPK3 log2FC (gene HIPK3 (10114), apoptosis genes): -0.044
log2FC HORMAD2 (gene HORMAD2 (Gene 150280), cell cycle genes): 0.09
log2FC HPGD (gene HPGD (Gene 3248), cell cycle genes): 0.065
HPN log2FC (gene HPN (3249), apoptosis genes): -0.076
HTRA2 log2FC (gene HTRA2 (27429), apoptosis genes): 0.078
log2FC HTRA2 (gene HTRA2 (Gene 27429), cell cycle genes): 0.08
IFI6 log2FC (gene IFI6 (2537), apoptosis genes): 0.0043
IFNA2 log2FC (gene IFNA2 (3440), apoptosis genes): 0.014
IFNB1 log2FC (gene IFNB1 (3456), apoptosis genes): 0.022
IL1A log2FC (gene IL1A (3552), apoptosis genes): -0.067
IL2RA log2FC (gene IL2RA (3559), apoptosis genes): -0.038
IL2RB log2FC (gene IL2RB (3560), apoptosis genes): -0.066
IL12A log2FC (gene IL12A (3592), apoptosis genes): -0.262
log2FC IL12A (gene IL12A (Gene 3592), cell cycle genes): -0.26
IL12B log2FC (gene IL12B (3593), apoptosis genes): -0.023
IL17A log2FC (gene IL17A (3605), apoptosis genes): 0.037
IL19 log2FC (gene IL19 (29949), apoptosis genes): -0.032
ILK log2FC (gene ILK (3611), apoptosis genes): -0.047
log2FC ILKAP (gene ILKAP (Gene 80895), cell cycle genes): -0.08
INSL6 log2FC (gene INSL6 (11172), apoptosis genes): 0.047
ISL1 log2FC (gene ISL1 (3670), apoptosis genes): -0.142
ITGA6 log2FC (gene ITGA6 (3655), apoptosis genes): -0.139
ITGB2 log2FC (gene ITGB2 (3689), apoptosis genes): 0.148
ITM2C log2FC (gene ITM2C (81618), apoptosis genes): 0.019
log2FC KATNB1 (gene KATNB1 (Gene 10300), cell cycle genes): 0.26
log2FC KCNA5 (gene KCNA5 (Gene 3741), cell cycle genes): -0.0139
KDR log2FC (gene KDR (3791), apoptosis genes): -0.033
log2FC (gene KIAA0101 (Gene 9768), cell cycle genes): 0.28
KIAA1324 log2FC (gene KIAA1324 (57535), apoptosis genes): -0.031
log2FC KIF2B (gene KIF2B (Gene 84643), cell cycle genes): -0.17
log2FC (gene KIF13A (Gene 63971), cell cycle genes): 0.06
log2FC (gene KIF23 (Gene 9493), cell cycle genes): 0.55
log2FC KIF25 (gene KIF25 (Gene 3834), cell cycle genes): 0.00228
KLF4 log2FC (gene KLF4 (9314), apoptosis genes): -0.178
KRT20 log2FC (gene KRT20 (54474), apoptosis genes): -0.013
LALBA log2FC (gene LALBA (3906), apoptosis genes): -0.012
log2FC LATS1 (gene LATS1 (Gene 9113), cell cycle genes): 0.0843
log2FC (gene LATS2 (Gene 26524), cell cycle genes): 0.38
LCMT1 log2FC (gene LCMT1 (51451), apoptosis genes): 0.003
LCN2 log2FC (gene LCN2 (3934), apoptosis genes): 0.063
log2FC (gene LEMD3 (Gene 23592), cell cycle genes): 0.29
LGALS1 log2FC (gene LGALS1 (3956), apoptosis genes): 0.053
LGALS12 log2FC (gene LGALS12 (85329), apoptosis genes): 0.050
LGALS14 log2FC (gene LGALS14 (56891), apoptosis genes): 0.104
log2FC (gene LMNA (Gene 4000), cell cycle genes): -0.0134
LRP1 log2FC (gene LRP1 (4035), apoptosis genes): 0.043
log2FC (gene LRP6 (Gene 4040), cell cycle genes): -0.12
log2FC (gene LSM11 (Gene 134353), cell cycle genes): 0.09
LTA log2FC (gene LTA (4049), apoptosis genes): 0.136
LTF log2FC (gene LTF (4057), apoptosis genes): 0.014
MAD2L1 log2FC (gene MAD2L1 (4085), apoptosis genes): -0.145
MAEL log2FC (gene MAEL (84944), apoptosis genes): -0.172
log2FC MAEL (gene MAEL (Gene 84944), cell cycle genes): -0.17
MAGED1 log2FC (gene MAGED1 (9500), apoptosis genes): -0.047
MAGEH1 log2FC (gene MAGEH1 (28986), apoptosis genes): 0.025
MAP2K5 log2FC (gene MAP2K5 (5607), apoptosis genes): -0.018
MAP2K7 log2FC (gene MAP2K7 (5609), apoptosis genes): 0.032
log2FC (gene MAP3K8 (Gene 1326), cell cycle genes): 0.0265
log2FC (gene MAP4 (Gene 4134), cell cycle genes): -0.23
MAPK1 log2FC (gene MAPK1 (5594), apoptosis genes): 0.017
log2FC (gene MAPK4 (Gene 5596), cell cycle genes): -0.08
log2FC (gene MAPK6 (Gene 5597), cell cycle genes): 0.12
MAPK8 log2FC (gene MAPK8 (5599), apoptosis genes): -0.015
MAPK9 log2FC (gene MAPK9 (5601), apoptosis genes): -0.052
log2FC (gene MAPK12 (Gene 6300), cell cycle genes): -0.18
MAPT log2FC (gene MAPT (4137), apoptosis genes): 0.031
log2FC MCM4 (gene MCM4 (Gene 4173), cell cycle genes): -0.12
MDM4 log2FC (gene MDM4 (4194), apoptosis genes): -0.144
log2FC (gene MED25 (Gene 81857), cell cycle genes): -0.19
MKL1 log2FC (gene MKL1 (57591), apoptosis genes): 0.300
MKNK1 log2FC (gene MKNK1 (8569), apoptosis genes): 0.102
MNDA log2FC (gene MNDA (4332), apoptosis genes): 0.077
MSX2 log2FC (gene MSX2 (4488), apoptosis genes): 0.052
MT3 log2FC (gene MT3 (4504), apoptosis genes): -0.313
log2FC (gene MYOG (Gene 4656), cell cycle genes): -0.13
NACA log2FC (gene NACA (4666), apoptosis genes): 0.038
log2FC NANOG (gene NANOG (Gene 79923), cell cycle genes): -0.07
log2FC (gene NASP (Gene 4678), cell cycle genes): 0.16
NCF1 log2FC (gene NCF1 (653361), apoptosis genes): 0.093
NCF2 log2FC (gene NCF2 (4688), apoptosis genes): -0.014
log2FC (gene NCOR1 (Gene 9611), cell cycle genes): 0.25
NDUFS3 log2FC (gene NDUFS3 (4722), apoptosis genes): 0.064
NEURL log2FC (gene NEURL (9148), apoptosis genes): 0.053
NEUROD1 log2FC (gene NEUROD1 (4760), apoptosis genes): 0.039
log2FC NEUROG1 (gene NEUROG1 (Gene 4762), cell cycle genes): -0.44
NLE1 log2FC (gene NLE1 (54475), apoptosis genes): 0.195
NME6 log2FC (gene NME6 (10201), apoptosis genes): -0.015
log2FC NME6 (gene NME6 (Gene 10201), cell cycle genes): -0.0153
NOS1AP log2FC (gene NOS1AP (9722), apoptosis genes): 0.021
NOTCH1 log2FC (gene NOTCH1 (4851), apoptosis genes): -0.008
NOX5 log2FC (gene NOX5 (79400), apoptosis genes): 0.00161
log2FC NOX5 (gene NOX5 (Gene 79400), cell cycle genes): 0.00161
NTRK1 log2FC (gene NTRK1 (4914), apoptosis genes): 0.391
log2FC (gene NUMA1 (Gene 4926), cell cycle genes): -0.09
log2FC (gene NUP153 (Gene 9972), cell cycle genes): -0.34
log2FC NUP155 (gene NUP155 (Gene 9631), cell cycle genes): -0.14
log2FC (gene NUP188 (Gene 23511), cell cycle genes): -0.16
NUPR1 log2FC (gene NUPR1 (26471), apoptosis genes): 0.072
OSR1 log2FC (gene OSR1 (130497), apoptosis genes): -0.027
P4HB log2FC (gene P4HB (5034), apoptosis genes): 0.036
log2FC (gene PA2G4 (Gene 5036), cell cycle genes): -0.51
PAFAH2 log2FC (gene PAFAH2 (5051), apoptosis genes): -0.020
PAK6 log2FC (gene PAK6 (56924), apoptosis genes): 0.142
log2FC PAK6 (gene PAK6 (Gene 56924), cell cycle genes): 0.14
log2FC (gene PAPD5 (Gene 64282), cell cycle genes): 0.31
PARK7 log2FC (gene PARK7 (11315), apoptosis genes): 0.018
PAX2 log2FC (gene PAX2 (5076), apoptosis genes): 0.009
log2FC PCNA (gene PCNA (Gene 5111), cell cycle genes): -0.28
PCSK9 log2FC (gene PCSK9 (255738), apoptosis genes): -0.221
log2FC PDCD2L (gene PDCD2L (Gene 84306), cell cycle genes): -0.12
PDCD5 log2FC (gene PDCD5 (9141), apoptosis genes): -0.049
PDCL3 log2FC (gene PDCL3 (79031), apoptosis genes): -0.222
PDE1B log2FC (gene PDE1B (5153), apoptosis genes): 0.019
PDE3A log2FC (gene PDE3A (5139), apoptosis genes): 0.00129
log2FC PDE3A (gene PDE3A (Gene 5139), cell cycle genes): 0.00129
